Data on nine compounds can be found in US12410124B2 (priority 2019, dated 2025).

Molecules are shown by their SMILES. Like-named read-outs stand apart in the source and are kept apart here.

For one experiment, the system named is hippocampus GFAP. Kind of experiment: Number of hippocampus astrocytes with GFAP positive expression in MPTP Parkinson's disease model mouse (immunohistochemistry). Conditions: for Positive cell number (astrocytes with GFAP positive expression): hippocampus, MPTP Parkinson's disease model mouse, immunohistochemistry. Type of experiment: in vivo. Here is the method:
(§1) Neurotoxins can be used to establish PD animal models. Currently, 1-methyl-4-phenyl-1,2,3,6-tetrahydropyridine (MPTP) is the sole synthetic toxin which is recognized to induce PD symptoms in human and non-human primates and in mice. Using MPTP subacute modeling method, C57BL/6J male mice were intraperitoneally injected with MPTP 30 mg/kg, once a day for 5 consecutive days. The experiment animals were divided into blank control group, MPTP model group, and compound treatment group. For the […] compound treatment group, the compound was administrated by gavage for 21 consecutive days after the completion of modeling; for the MPTP model group, the normal saline was administrated by gavage for 21 consecutive days after the completion of modeling; and for the blank control group, the normal saline was first intraperitoneally injected for 5 days, and then administrated by gavage for 21 days.
Neuron-glial cell network homeostasis disorder is an important factor for the selective and progressive death of substantia nigra dopaminergic neurons in PD. In the neurotoxic effect of MPTP, the excessive activations of microglial cells and astrocytes produce a variety of inflammatory cytokines and reactive oxygen species (ROS). These inflammatory factors and ROS amplify their respective toxicities and mediate malignant feedback loop, causing a cascade inflammation response and aggravating the pathological process of PD. CD11b and GFAP are the marker proteins for activations of microglial cells and astrocytes, respectively. Therefore, the effect of the target compounds on the activations of the microglial cells and astrocytes in the substantia nigra, hippocampus, and midbrain areas of MPTP-induced PD mice can be investigated, to explore the mechanism of the anti-PD effect of the target compounds by inhibiting the neuroinflammation.
Half of experiment mice in each group were taken to separate the midbrain after perfusion and fixation. The tissue was trimmed, and the hippocampus area was taken to prepare paraffin sections. The GFAP immunohistochemical staining was performed for the statistics of the change in the number of astrocytes with GFAP positive expression. The experiment included blank control group, MPTP model group, positive control group (caffeic acid phenethyl ester, CAPE), prototype control group (styryl sulfone compounds 3B, 3C, 3D, and 3G, whose structures are shown as above), and target compound group.

The next experiment relates to midbrain p-α-s. Briefly: Midbrain p-α-s protein expression in MPTP Parkinson's disease model mouse (western-blotting). In kind it is in vivo. To be noted: midbrain total protein, GAPDH internal reference, gavage 21 consecutive days after MPTP modeling. Here is the method:
as §1
Alpha-synuclein is an “unfolded protein” in its natural state. It exists in a monomeric form, and participates in the physiological functions such as the release of neurotransmitters, the establishment of synaptic junctions, and the regulation of synaptic plasticity. Under pathological conditions, more than 90% of alpha-synuclein is phosphorylated at serine of position 129 and converted into phosphorylated alpha-synuclein (p-α-s), thereby forming Lewy bodies. The formation of Lewy bodies is one of the main pathological manifestations and pathological mechanisms for Parkinson's disease, and plays an important role in the formation and development of PD. The detection of the p-α-s expression in the midbrain and substantia nigra of PD model mice can evaluate the neuroprotective activity of the compound.
Half of experiment mice in each group were taken to extract the total midbrain protein, and the change in the midbrain P-α-s protein expression was determined by western-blotting using GAPDH as the internal reference. The experiment included blank control group, MPTP model group, positive control group (caffeic acid phenethyl ester, CAPE), prototype control group (styryl sulfone compounds 3B, 3C, 3D, and 3G, whose structures are shown as above), and target compound group.

In the next experiment the test system is primary glial cells. Kind of experiment: Inhibition of the NO release of primary glial cells induced by LPS. Type of experiment: cell-based, rat. To be noted: for inhibition at 5 µM / inhibition at 10 µM / inhibition at 20 µM / inhibition at 2 µM: Rattus norvegicus, Glial cell, read-out: NO inhibition (%). An excerpt: Lipopolysaccharide (LPS) is a main component of the cell wall of Gram-negative bacteria. It is a potent inflammatory factor that can directly activate gliocytes, and the activated gliocytes secrete a large amount of inflammation mediators such as tumor necrosis factor, interleukin, and nitric oxide, thus causing inflammatory reactions and oxidative stress reactions and eventually leading to neuronal denaturation and death. In recent years, the targeted injection of LPS into rat substantia nigra or striatum to induce neuroinflammation can successfully establish PD models, which can simulate most of the clinical manifestations and pathological features of PD, and are used for the study on the neuroinflammation mechanism associated with PD. LPS-induced primary glial cell PD inflammation model is suitable for the preliminary anti-neuroinflammation screening for neuroprotective agents. LPS is used to directly activate primary glial cells to simulate the pathogenesis mechanism of neuroinflammation, and the inhibitory activity of the target compounds on the inflammatory response of primary glial cells can be investigated.
The materials were taken from the brain tissue of fetal rat, for primary glial cell culture. At 7 to 10 days of the culture, LPS was added for the activation of nitric oxide (NO) release in glial cells. When a target compound was added, the reduction value for NO content in the cell culture medium was measured, to evaluate the anti-neuroinflammation activity of the compound. The experiment included blank control group, LPS model group, positive control group (caffeic acid phenethyl ester, CAPE), prototype control group (styryl sulfone compounds 3B, 3C, 3D, and 3G, the structures of which compounds are shown as above), and target compound group.

The next experiment concerns midbrain pp38. Kind of experiment: Midbrain pp38 protein expression in MPTP Parkinson's disease model mouse (western-blotting). In kind it is in vivo. Conditions: midbrain total protein, GAPDH internal reference, gavage 21 days after MPTP modeling. The protocol: as §1
The p38 mitogen-activated protein kinase (p38 MAPK) is expressed in both neurons and glial cells, and is the intersection point of neuron-glial cell network information regulations. The activation of p38 signaling pathway is an important initiator of neuronal degeneration, which continuously induces the apoptosis of dopaminergic neurons in multiple ways. It has become a research hotspot for the treatment of PD. Studies have shown that the protective mechanism of CAPE against the death of primary cultured cerebellar granule neurons induced by glutamate lies in inhibiting the activation of p38 phosphorylation and in turn inhibiting the activation of the caspase 3 apoptotic pathway to prevent neuronal apoptosis. Therefore, the MPTP-induced PD mouse model can be used to investigate the inhibitory effect of the target compounds on the activation of p38 phosphorylation on the overall animal level.
Half of experiment mice in each group were taken to extract the total midbrain protein, and the change in the midbrain phosphorylated p38 protein expression was determined by western-blotting using GAPDH as the internal reference. The experiment included blank control group, MPTP model group, positive control group (caffeic acid phenethyl ester, CAPE), prototype control group (styryl sulfone compounds 3B, 3C, 3D, and 3G, whose structures are shown as above), and target compound group.

As usually defined, the inhibition is how much of the control response was suppressed. For the compound `O=S(=O)(/C=C/c1ccc(O)c(O)c1)Cc1ccc(C(F)(F)F)cc1` [Compound 3B, (E)-4-{2-[(4-trifluoromethylphenyl)mesyl]ethenyl}benzene-1,2-diol, reference compound], the “Positive cell number (astrocytes with GFAP positive expression)” value (shortened to “Positive cell number”) in the experiment on hippocampus GFAP turned out to be 118 ± 8. For the same compound, in the experiment on midbrain p-α-s, the “Expression (p-α-s/GAPDH)” value is recorded as 0.93 ± 0.04. Also, the inhibition at 5 µM in the experiment with primary glial cells (5 μM) is 17.2 ± 4.56%. Moreover, the inhibition at 10 µM with primary glial cells (10 μM) is 38.6 ± 2.13%. Also, in the experiment with primary glial cells (20 μM), the inhibition at 20 µM came to 92 ± 3.01%. In the experiment with midbrain pp38, the “Expression (pp38/GAPDH)” value is recorded as 1.18 ± 0.08.
As to `O=S(=O)(/C=C/c1ccc(O)c(O)c1)CCCc1ccccc1` [Compound 3C, (E)-4-{2-[(3-phenylpropyl)sulfonyl]ethenyl}benzene-1,2-diol, reference compound], in the experiment with hippocampus GFAP, the “Positive cell number” value is 147 ± 4. The “Expression (p-α-s/GAPDH)” value in the experiment with midbrain p-α-s is given as 0.92 ± 0.13. Also, the inhibition at 5 µM with primary glial cells (5 μM) is 9.24 ± 4.88%. Further, the inhibition at 10 µM with primary glial cells (10 μM) turned out to be 24.6 ± 3.09%. Also, the inhibition at 20 µM with primary glial cells (20 μM) came to 45.8 ± 5.25%. Further, the “Expression (pp38/GAPDH)” value in the experiment with midbrain pp38 is given as 0.85 ± 0.22.
Regarding `O=S(=O)(/C=C/c1ccc(O)c(O)c1)Cc1ccc(Cl)cc1` [Compound 3D, (E)-4-{2-[(4-chlorophenyl)mesyl]ethenyl}benzene-1,2-diol, reference compound], the “Positive cell number” value in the experiment with hippocampus GFAP came to 106 ± 6. In addition, the “Expression (p-α-s/GAPDH)” value in the experiment on midbrain p-α-s is 0.49 ± 0.12. The inhibition at 2 µM with primary glial cells stood at 23.5 ± 8.05%. Besides, the inhibition at 5 µM with primary glial cells (5 μM) worked out at 34.6 ± 4.89%. The inhibition at 10 µM in the experiment on primary glial cells (10 μM) turned out to be 74.7 ± 3.32%. Besides, the “Expression (pp38/GAPDH)” value with midbrain pp38 is on record as 1.00 ± 0.11.
`CC(C)(C)c1ccc(CS(=O)(=O)/C=C/c2ccc(O)c(O)c2)cc1` [Compound 3G, (E)-4-{2-[(4-t-butylphenyl)mesyl]ethenyl}benzene-1,2-diol, reference compound]: the “Positive cell number” value in the experiment on hippocampus GFAP is 130 ± 6. Moreover, the “Expression (p-α-s/GAPDH)” value with midbrain p-α-s was 0.61 ± 0.08. Also, in the experiment on primary glial cells (5 μM), the inhibition at 5 µM is 41.2 ± 3.01%. The inhibition at 10 µM in the experiment on primary glial cells (10 μM) came to 59.6 ± 2.44%. In the experiment with primary glial cells (20 μM), the inhibition at 20 µM stood at 85.8 ± 3.88%. In addition, the “Expression (pp38/GAPDH)” value in the experiment with midbrain pp38 is on record as 0.69 ± 0.22.
In the case of `CC(C)N(c1ccc(CCS(=O)(=O)/C=C/c2ccc(OC(=O)N(C)c3ccc(I)cc3)c(OCCOCc3ccccc3)c2)cc1)C(C)C` [Compound A1-3, (E)-2-(2-benzyloxyethoxy)-4-{2-[4-(N,N-diisopropylamino)phenylethylsulfonyl]ethenyl}phenyl-N-(4-iodophenyl)-N-methylcarbamate], the “Positive cell number” value in the experiment with hippocampus GFAP was determined as 55 ± 3. In addition, in the experiment on midbrain p-α-s, the “Expression (p-α-s/GAPDH)” value was determined as 0.56 ± 0.12. For the same compound, in the experiment with primary glial cells, the inhibition at 5 µM was found to be 19.6 ± 3.67%, the inhibition at 10 µM was 43.2 ± 2.36% and the inhibition at 20 µM amounted to 62.1 ± 4.73%. Further, the “Expression (pp38/GAPDH)” value in the experiment on midbrain pp38 is listed as 0.27 ± 0.08.
Take `CCN(CC)C(=O)Oc1ccc(/C=C/S(=O)(=O)Cc2ccc(C(F)(F)F)cc2)cc1OC(=O)N(CC)CC` [Compound B1-1, (E)-4-{2-[(4-trifluoromethylphenyl)mesyl]ethenyl}-1,2-phenylenebis(diethylcarbamate)]: in the experiment on hippocampus GFAP, the “number of hippocampus astrocytes with GFAP positive expression compared with the styryl sulfone prototype compounds” value is reported as “significantly lower” and the “Positive cell number” value was determined as 64 ± 4. Further, the “Expression (p-α-s/GAPDH)” value in the experiment on midbrain p-α-s was 0.23 ± 0.12. The “NO inhibitory rate compared with the styryl sulfone prototype compounds” value in the experiment on primary glial cells is “equivalent or higher inhibitory rate”. The inhibition at 5 µM in the experiment with primary glial cells (5 μM) was 21.6 ± 2.18%. The inhibition at 10 µM in the experiment with primary glial cells (10 μM) came to 42.8 ± 3.56%. The inhibition at 20 µM with primary glial cells (20 μM) is 97.7 ± 2.04%. The “Expression (pp38/GAPDH)” value in the experiment on midbrain pp38 is listed as 0.37 ± 0.12.
As to `CCN(CC)C(=O)Oc1ccc(/C=C/S(=O)(=O)CCCc2ccccc2)cc1OC(=O)N(CC)CC` [Compound C1-1, (E)-4-[2-(3-phenylpropylsulfonyl)ethenyl]-1,2-phenylenebis(diethylcarbamate)], in the experiment with hippocampus GFAP, the “number of hippocampus astrocytes with GFAP positive expression compared with the styryl sulfone prototype compounds” value was “significantly lower” and the “Positive cell number” value amounted to 78 ± 3. Moreover, the “Expression (p-α-s/GAPDH)” value with midbrain p-α-s is reported as 0.63 ± 0.06. In addition, in the experiment on primary glial cells, the “NO inhibitory rate compared with the styryl sulfone prototype compounds” value was “equivalent or higher inhibitory rate”. Moreover, the inhibition at 5 µM in the experiment with primary glial cells (5 μM) turned out to be 17.6 ± 3.24%. In the experiment on primary glial cells (10 μM), the inhibition at 10 µM was 32.8 ± 5.25%. Besides, the inhibition at 20 µM in the experiment on primary glial cells (20 μM) worked out at 59.5 ± 4.33%. For the same compound, the “Expression (pp38/GAPDH)” value in the experiment with midbrain pp38 came to 0.63 ± 0.06.
For `CCN(CC)C(=O)Oc1ccc(/C=C/S(=O)(=O)Cc2ccc(Cl)cc2)cc1OC(=O)N(CC)CC` [Compound D1-1, (E)-4-{2-[(4-chlorophenyl)mesyl]ethenyl}-1,2-phenylenebis(diethylcarbamate)], in the experiment with hippocampus GFAP, the “number of hippocampus astrocytes with GFAP positive expression compared with the styryl sulfone prototype compounds” value is on record as “significantly lower” and the “Positive cell number” value is 58 ± 5. In addition, in the experiment on midbrain p-α-s, the “Expression (p-α-s/GAPDH)” value is on record as 0.42 ± 0.10. In the experiment on primary glial cells, the “NO inhibitory rate compared with the styryl sulfone prototype compounds” value is listed as “equivalent or higher inhibitory rate” and the inhibition at 2 µM was 24.8 ± 4.08%. In addition, in the experiment on primary glial cells (5 μM), the inhibition at 5 µM was determined as 61.4 ± 2.77%. For the same compound, in the experiment with primary glial cells (10 μM), the inhibition at 10 µM came out at 84.5 ± 7.56%. The “Expression (pp38/GAPDH)” value in the experiment on midbrain pp38 is 0.50 ± 0.13.
Regarding `CC(=O)Oc1ccc(/C=C/S(=O)(=O)Cc2c(F)c(F)c(F)c(F)c2F)cc1OC(=O)NC(=O)c1ccc([N+](=O)[O-])c(C)c1` [Compound D5-4, (E)-2-[N-(3-methyl-4-nitrobenzoyl)carbamoyloxy]-4-{2-[(perfluorophenyl)mesyl]ethenyl}phenyl acetate], the “Positive cell number” value with hippocampus GFAP amounted to 59 ± 3. Further, the “Expression (p-α-s/GAPDH)” value in the experiment with midbrain p-α-s is on record as 0.64 ± 0.12. In the experiment with primary glial cells, the inhibition at 2 µM was determined as 24.3 ± 2.82%. Also, in the experiment with primary glial cells (10 μM), the inhibition at 10 µM is 80.7 ± 4.06%. In addition, the “Expression (pp38/GAPDH)” value in the experiment with midbrain pp38 stood at 0.61 ± 0.07.
